This data set relates to mouse liver microsomes + NADPH, LC-MS/MS % remaining. Nature of the data set: Inhibitors of N370S glucocerebrosidase as a Potential Chaperone Treatment of Gaucher Disease: Metabolic Stability Profile with NADPH. As to conditions: at 5 µM; higher = more stable (active). The source says:
Glucocerebrosidase (GC) catalyzes the hydrolysis of beta-glucocerebroside to glucose and ceramide in lysosomes. Mutations in the glucocerebrosidase gene result in Gaucher disease, an autosomal recessive lysosomal storage disorder. Many of the mutations encountered in patients with Gaucher disease are missense alterations that may cause misfolding, decreased stability and/or mistrafficking of this lysosomal protein. […] These inhibitors include iminosugar analogs and three non-iminosugar inhibitors identified from a previous HTS of 62,000 compounds with the wild type recombinant enzyme. After further testing a probe has been identified and was characterized though AMDE tests. Mouse liver microsomes are created through broken up endoplasmic reticulum from mouse liver. These liver microsomes contain many drug metabolizing enzymes, such as Cytochome P-450s and flavin-containing monooxygenases. […] NIH Chemical Genomics Center [NCGC] NIH Molecular Libraries Probe Production Centers Network [MLPCN] MLPCN Grant: MH086442-01 Assay Submitter (PI): Wei Zheng
5uM of compound is incubated with mouse liver microsome in the presence of NADPH; the reference compounds are verapamil and warfarin. Compounds are incubated and samples are analyzed with LC-MS/MS.

The structures appear in SMILES notation.

For the compound `S=C(NCCCc1cnc[nH]1)NCCCN(Cc1ccc(Cl)c(Cl)c1)c1ccc(Br)cn1`, the percent remaining was 58%.

Values taken from PubChem BioAssay AID504746 (National Center for Advancing Translational Sciences (NCATS), 2011).
